These results are taken from patent publication US20260232709A1, “COMPOSITION COMPRISING MELOSIDE FOR ALLEVIATING HAIR LOSS AND IMPROVING HAIR GROWTH” (MORECHEM CO., LTD., priority 2024, published 2026).

SMILES strings stand for the structures. Entries after “also recorded” stand apart in the source; their conditions may differ.

In series [1] the test system is reactive oxygen species (ROS). In words: DHT-induced intracellular reactive oxygen species in HDPC (DCF-DA fluorescence). To be noted: 30 or 100 ppm with 100 μg/mL DHT, 24 hours, FIGS. 12 and 13. It is filed as cell-based, human. As to the method: The intracellular reactive oxygen species inhibition effect was evaluated using human hair dermal papilla cells (HDPC). Measurement was performed by utilizing the principle that the non-fluorescent substance 2′,7′-dichlorodihydrofluorescein diacetate (DCF-DA) reacts with intracellularly generated free radicals and oxidizes into the fluorescent substance 2′,7′-dichlorofluorescein (DCF).
Human dermal papilla cells were seeded into 12-well plates at 5.5×10^4 cells/well and cultured for 24 hours in a 37° C., 5% CO2 incubator. Subsequently, samples prepared at various concentrations were treated into each well and cultured for 23 hours in a 37° C., 5% CO2 incubator. For the treated groups, Meloside A or L at 30 or 100 ppm were treated along with DHT. For control groups, HDPC treated with 100 μg/mL DHT but without Meloside A and L, and untreated HDPC (neither Meloside A or L nor DHT) were used. […] After removing DCF-DA and washing twice with PBS, images were taken every 10 minutes for 30 minutes using a fluorescence microscope at Ex 485 nm and Em 535 nm. The level of intracellular reactive oxygen species generation was measured by quantifying fluorescence intensity in […] using Image J, thereby confirming the ROS reduction efficacy of Meloside.

The subject of a further series is IL-6 (Interleukin 6). In words: IL-6 expression in DHT-treated HDPC supernatant (ELISA). It is filed as cell-based, human. To be noted: HDPC treated with 100 μg/mL DHT, 30 or 100 ppm, 1 day, FIG. 11. As to the method:
Specifically, the following groups were prepared: (i) a negative control group, where neither Dihydrotestosterone (DHT) nor Meloside A and L were treated on human dermal papilla cells (HDPC); (ii) an untreated group, where 100 μg/mL DHT was treated on HDPC, but neither Meloside A nor L was treated; (iii) a positive control group, where HDPC were treated with 100 μM Minoxidil or 20 μM Dexamethasone (DEX); and (iv) a treated group, where HDPC were first treated with 100 μg/mL DHT to increase IL-6 expression, and then treated with Meloside A or L at concentrations of 30 or 100 ppm, respectively, for 1 day. After preparation, the cell supernatants from HDPC of (i) to (iv) were obtained, and the increase or decrease in the expression level of IL-6 (Interleukin 6) was confirmed using an Enzyme-Linked Immunosorbent Assay (ELISA). For the analysis of expression patterns for each sample, normalization was performed based on a standard sample of IL-6, and the results are shown in FIG. 11.
Background: ELISA stands for enzyme-linked immunosorbent assay.

Series [2] concerns Vascular Endothelial Growth Factor (VEGF). In words: VEGF expression in HDPC supernatant (ELISA). It is filed as cell-based, human. To be noted: 30 or 100 ppm, 1 day, FIG. 8. As to the method: HDPC were treated with Meloside A or L at concentrations of 30 or 100 ppm, respectively, for 1 day to obtain the cell supernatant. For comparison, HDPC that were not treated with either Meloside A or L were used as the negative control group, and HDPC treated with 100 μM Minoxidil were used as the positive control group.
The increase or decrease in VEGF expression level in the obtained cell supernatant was confirmed through an Enzyme-Linked Immunosorbent Assay (ELISA) method, and the results are shown in FIG. 8.

Series [3] has as its system human dermal papilla cells (HDPC). Description: Cytotoxicity / growth-proliferation of dermal papilla cells (CCK-8). Type of series: cell-based. The settings on record: 10, 30, 50, 100 ppm, 1 day, CCK-8, 450 nm, FIG. 1. As to the method:
Human hair dermal papilla cells (HDPC), used in the test examples described below, were cultured in Dulbecco's Modified Eagle Medium (DMEM, WELGENE) supplemented with 10% Fetal Bovine Serum (FBS, WELGENE) and 1% antibiotics (Penicillin-Streptomycin, WELGENE) as the culture medium, in an incubator at 37° C., 5% CO2, and humid conditions.
(§1) Specifically, after treating human dermal papilla cells (HDPC) or human outer root sheath cells (ORS) with Meloside A or Meloside L at concentrations of 10, 30, 50, and 100 ppm for 1 day, CCK-8 (Cell Counting Kit-8, Dojindo, EU) reagent was added to the treated HDPC according to the manufacturer's protocol. Absorbance was then measured at a wavelength of 450 nm using a microplate reader (BioTeK, USA), and the extent of HDPC growth/proliferation by Meloside treatment was compared and confirmed against the negative control group (treated with DMEM instead of Meloside A or L).

In series [4] the test system is human outer root sheath cells (ORS). In words: Cytotoxicity / growth-proliferation of outer root sheath cells (CCK-8). Type of series: cell-based. To be noted: 10, 30, 50, 100 ppm, 1 day, CCK-8, 450 nm, FIG. 2. As to the method:
Human Hair Outer Root Sheath Cells (ORS), used in the test examples described below, were cultured in culture plates coated with Poly-L-Lysine, using Mesenchymal Stem Cell Medium (MSCM, ScienCell) supplemented with 5% Fetal Bovine Serum (FBS, ScienCell), 1% Mesenchymal stem cell growth supplement (MSCGS, ScienCell), and antibiotics (Penicillin-Streptomycin, ScienCell) as the culture medium, in an incubator at 37° C., 5% CO2, and humid conditions.
as §1

As to `O=c1cc(-c2ccc(O)cc2)oc2cc(O)c([C@@H]3O[C@H](CO)[C@@H](O)[C@H](O)[C@H]3O[C@@H]3O[C@H](CO)[C@@H](O)[C@H](O)[C@H]3O)c(O)c12` [Meloside A, isovitexin 2″-O-glucoside], the “reactive oxygen species (ROS) generation” value in series [1] is given as “reduction in reactive oxygen species (ROS) generation”. The IL-6 expression level entry in the series with IL-6 (Interleukin 6) is “decrease in IL-6 expression”. The VEGF expression level entry in series [2] is on record as “increase in VEGF expression; also recorded: superior to that of Meloside L”. Also, the “cell growth/proliferation (cytotoxicity) of HDPC vs negative control” value in series [3] is reported as “comparable levels of cell growth/proliferation to the negative control group”. Further, the “cell growth/proliferation (cytotoxicity) of ORS vs negative control” value in series [4] is recorded as “comparable levels of cell growth/proliferation to the negative control group”.
Turning to `O=c1cc(-c2ccc(O)c(O)c2)oc2cc(O)c([C@@H]3O[C@H](CO)[C@@H](O)[C@H](O)[C@H]3O[C@@H]3O[C@H](CO)[C@@H](O)[C@H](O)[C@H]3O)c(O)c12` [Meloside L, isoorientin 2″-O-glucoside], the “reactive oxygen species (ROS) generation” value in series [1] is “reduction in reactive oxygen species (ROS) generation”. The IL-6 expression level entry in the series on IL-6 (Interleukin 6) was “no IL-6 expression reduction effect was observed”. Besides, the VEGF expression level result in series [2] is recorded as “increase in VEGF expression”. For the same molecule, in series [3], the “cell growth/proliferation (cytotoxicity) of HDPC vs negative control” value is “comparable levels of cell growth/proliferation to the negative control group”. Also, the “cell growth/proliferation (cytotoxicity) of ORS vs negative control” value in series [4] is “comparable levels of cell growth/proliferation to the negative control group”.
